BindingDB's records for doi:10.1016/j.bmc.2006.10.050 (Paradigm Pharmaceuticals, 2007)

Tests used:
[1] = biological target: Serine/threonine-protein kinase PLK1 (Xenopus laevis, UniProt P70032); test: Plx1 Kinase Inhibition Assay; conditions: pH 7.5; 22 °C
Method: Purified Plx1 was first incubated with different concentrations of LFM-A13. The substrate, GST-Cdc25 peptide (254-316) and [gamma-32P]ATP were added and the kinase reaction allowed to proceed for 15 min at room temperature. After incubation, incorporation of radioactivity to the substrate was further quantified.

[2] = biological target: Serine/threonine-protein kinase PLK3 (Homo sapiens, UniProt Q9H4B4); test: PLK3 Kinase Inhibition Assay; conditions: pH 7; 22 °C
Method: The mode of human PLK3 inhibition by LFM-A13 was examined in titration experiments using increasing concentrations of [gamma-32P]ATP and purified N-terminal His6-tagged recombinant human PLK3. The Ki of PLK3 by LFM-A13 was calculated from the reciprocal plots of the intensity of phosphorylation of the substrate versus the concentration of the inhibitor. From this Dixon plot, the Ki represents the dissociation constants of the EI complex, which is determined by the point of linear intersection.

[3] = biological target: Cyclin-A2/Cyclin-dependent kinase 2 (Homo sapiens, UniProt P24941); test: Kinase Selectivity Assay
Source text: (§1) The specificity of LFM-A13 was further examined against a broad panel of serine-threonine kinases and tyrosine kinases using the KinaseProfiler Assay protocols from Upstate (Charlottesville, Virginia).

[4] = biological target: T1, Cytoplasmic tyrosine-protein kinase BMX (Homo sapiens, UniProt P51813); test: Kinase Selectivity Assay
T1 sequence (P51813 whole entry): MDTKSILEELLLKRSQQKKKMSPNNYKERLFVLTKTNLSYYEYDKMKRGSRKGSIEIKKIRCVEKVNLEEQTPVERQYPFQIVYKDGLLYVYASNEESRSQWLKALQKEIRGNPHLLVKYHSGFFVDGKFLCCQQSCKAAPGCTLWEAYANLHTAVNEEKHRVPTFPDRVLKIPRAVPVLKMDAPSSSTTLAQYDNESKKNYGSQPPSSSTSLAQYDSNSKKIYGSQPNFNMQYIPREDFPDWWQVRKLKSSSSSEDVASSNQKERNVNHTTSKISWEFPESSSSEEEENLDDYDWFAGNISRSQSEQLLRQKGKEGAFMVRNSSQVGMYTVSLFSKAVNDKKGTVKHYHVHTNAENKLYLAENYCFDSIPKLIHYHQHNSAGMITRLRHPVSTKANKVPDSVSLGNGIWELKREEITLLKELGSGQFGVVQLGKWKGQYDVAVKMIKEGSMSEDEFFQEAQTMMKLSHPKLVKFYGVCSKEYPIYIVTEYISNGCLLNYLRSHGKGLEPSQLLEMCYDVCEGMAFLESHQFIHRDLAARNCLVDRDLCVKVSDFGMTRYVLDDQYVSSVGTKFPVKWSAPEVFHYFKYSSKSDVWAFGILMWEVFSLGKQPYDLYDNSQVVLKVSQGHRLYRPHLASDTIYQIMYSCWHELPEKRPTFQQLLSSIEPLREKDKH
Source text: as §1

[5] = biological target: Hepatocyte growth factor receptor (Homo sapiens, UniProt P08581); test: Kinase Selectivity Assay
Source text: as §1

[6] = biological target: T2, Serine/threonine-protein kinase Chk1 (Homo sapiens, UniProt O14757); test: Kinase Selectivity Assay
T2 sequence (O14757 whole entry): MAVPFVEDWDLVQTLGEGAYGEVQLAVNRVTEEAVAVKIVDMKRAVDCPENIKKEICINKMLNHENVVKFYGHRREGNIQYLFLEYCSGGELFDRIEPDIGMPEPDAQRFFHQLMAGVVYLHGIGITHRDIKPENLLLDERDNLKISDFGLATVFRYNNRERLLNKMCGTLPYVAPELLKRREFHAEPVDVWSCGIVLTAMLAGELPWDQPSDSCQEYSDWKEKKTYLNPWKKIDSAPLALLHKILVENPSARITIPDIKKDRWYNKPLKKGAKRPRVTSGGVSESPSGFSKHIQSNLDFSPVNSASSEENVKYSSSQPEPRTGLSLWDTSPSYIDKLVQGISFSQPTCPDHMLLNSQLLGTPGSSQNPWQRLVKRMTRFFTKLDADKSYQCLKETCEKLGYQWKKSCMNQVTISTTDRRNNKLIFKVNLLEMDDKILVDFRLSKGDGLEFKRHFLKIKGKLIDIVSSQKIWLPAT
Source text: as §1

[7] = biological target: Tyrosine-protein kinase Fyn (Homo sapiens, UniProt P06241); test: Kinase Selectivity Assay
Source text: as §1

[8] = biological target: Cyclin-dependent kinase/G2/mitotic-specific cyclin- 1 (Homo sapiens, UniProt P06493); test: Kinase Selectivity Assay
Source text: as §1

[9] = biological target: Protein-tyrosine kinase 6 (Homo sapiens, UniProt Q13882); test: Kinase Selectivity Assay
Source text: as §1

[10] = biological target: Mast/stem cell growth factor receptor Kit (Homo sapiens, UniProt P10721); test: Kinase Selectivity Assay
Source text: as §1

Chain of Serine/threonine-protein kinase PLK3 (Q9H4B4 whole entry): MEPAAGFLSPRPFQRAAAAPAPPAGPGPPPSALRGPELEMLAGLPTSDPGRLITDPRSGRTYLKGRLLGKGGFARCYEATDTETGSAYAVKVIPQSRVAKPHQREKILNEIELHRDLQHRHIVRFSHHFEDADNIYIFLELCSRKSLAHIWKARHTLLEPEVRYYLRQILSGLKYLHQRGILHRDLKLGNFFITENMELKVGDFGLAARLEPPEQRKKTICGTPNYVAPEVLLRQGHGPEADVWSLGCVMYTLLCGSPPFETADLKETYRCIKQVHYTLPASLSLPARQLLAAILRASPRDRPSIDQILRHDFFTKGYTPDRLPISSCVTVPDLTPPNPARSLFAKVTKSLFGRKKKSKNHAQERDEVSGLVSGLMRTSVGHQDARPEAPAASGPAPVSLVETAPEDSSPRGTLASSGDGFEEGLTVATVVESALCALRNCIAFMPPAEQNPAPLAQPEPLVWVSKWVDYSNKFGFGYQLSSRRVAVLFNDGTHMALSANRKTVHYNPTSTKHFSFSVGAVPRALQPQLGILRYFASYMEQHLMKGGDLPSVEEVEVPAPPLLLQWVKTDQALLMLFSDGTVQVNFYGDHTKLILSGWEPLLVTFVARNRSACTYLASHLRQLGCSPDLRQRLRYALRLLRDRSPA
Chain of Cyclin-dependent kinase/G2/mitotic-specific cyclin- 1 (P06493 whole entry): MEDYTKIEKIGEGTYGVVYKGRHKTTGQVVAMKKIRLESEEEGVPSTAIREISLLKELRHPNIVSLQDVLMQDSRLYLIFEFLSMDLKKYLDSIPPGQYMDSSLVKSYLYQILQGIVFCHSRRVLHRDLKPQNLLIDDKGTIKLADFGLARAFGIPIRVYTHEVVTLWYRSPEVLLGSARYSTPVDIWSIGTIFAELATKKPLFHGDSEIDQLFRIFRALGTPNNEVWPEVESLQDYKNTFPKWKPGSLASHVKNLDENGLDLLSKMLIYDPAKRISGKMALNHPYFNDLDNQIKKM
Chain of Cyclin-dependent kinase/G2/mitotic-specific cyclin- 1 (P14635 whole entry, further chain): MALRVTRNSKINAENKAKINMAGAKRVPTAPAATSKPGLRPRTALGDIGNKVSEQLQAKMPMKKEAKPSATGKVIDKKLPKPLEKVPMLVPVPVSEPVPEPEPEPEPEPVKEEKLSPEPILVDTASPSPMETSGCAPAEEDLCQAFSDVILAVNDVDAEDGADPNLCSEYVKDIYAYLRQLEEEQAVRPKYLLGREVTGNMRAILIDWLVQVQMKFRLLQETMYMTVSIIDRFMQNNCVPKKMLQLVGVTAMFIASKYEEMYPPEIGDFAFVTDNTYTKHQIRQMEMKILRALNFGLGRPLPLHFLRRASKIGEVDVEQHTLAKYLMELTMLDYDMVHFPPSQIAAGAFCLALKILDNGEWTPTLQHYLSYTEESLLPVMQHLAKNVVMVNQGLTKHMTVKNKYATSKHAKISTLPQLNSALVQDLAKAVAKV
Chain of Serine/threonine-protein kinase PLK1 (P70032 whole entry): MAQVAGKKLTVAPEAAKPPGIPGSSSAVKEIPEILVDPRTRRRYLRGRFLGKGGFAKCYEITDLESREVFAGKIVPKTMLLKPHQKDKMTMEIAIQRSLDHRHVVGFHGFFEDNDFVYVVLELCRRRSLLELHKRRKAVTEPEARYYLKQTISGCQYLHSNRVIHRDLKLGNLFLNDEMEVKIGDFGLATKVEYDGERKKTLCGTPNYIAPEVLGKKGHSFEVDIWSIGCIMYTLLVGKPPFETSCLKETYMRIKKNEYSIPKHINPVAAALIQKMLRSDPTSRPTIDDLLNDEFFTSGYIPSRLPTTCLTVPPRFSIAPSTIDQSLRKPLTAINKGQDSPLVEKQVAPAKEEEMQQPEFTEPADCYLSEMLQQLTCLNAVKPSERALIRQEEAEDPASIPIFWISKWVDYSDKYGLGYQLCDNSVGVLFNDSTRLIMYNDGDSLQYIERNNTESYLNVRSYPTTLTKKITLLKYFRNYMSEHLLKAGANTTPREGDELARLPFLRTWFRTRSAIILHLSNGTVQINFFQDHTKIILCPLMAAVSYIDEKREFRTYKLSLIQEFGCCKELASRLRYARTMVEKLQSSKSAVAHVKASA
Chain of Mast/stem cell growth factor receptor Kit (P10721 whole entry): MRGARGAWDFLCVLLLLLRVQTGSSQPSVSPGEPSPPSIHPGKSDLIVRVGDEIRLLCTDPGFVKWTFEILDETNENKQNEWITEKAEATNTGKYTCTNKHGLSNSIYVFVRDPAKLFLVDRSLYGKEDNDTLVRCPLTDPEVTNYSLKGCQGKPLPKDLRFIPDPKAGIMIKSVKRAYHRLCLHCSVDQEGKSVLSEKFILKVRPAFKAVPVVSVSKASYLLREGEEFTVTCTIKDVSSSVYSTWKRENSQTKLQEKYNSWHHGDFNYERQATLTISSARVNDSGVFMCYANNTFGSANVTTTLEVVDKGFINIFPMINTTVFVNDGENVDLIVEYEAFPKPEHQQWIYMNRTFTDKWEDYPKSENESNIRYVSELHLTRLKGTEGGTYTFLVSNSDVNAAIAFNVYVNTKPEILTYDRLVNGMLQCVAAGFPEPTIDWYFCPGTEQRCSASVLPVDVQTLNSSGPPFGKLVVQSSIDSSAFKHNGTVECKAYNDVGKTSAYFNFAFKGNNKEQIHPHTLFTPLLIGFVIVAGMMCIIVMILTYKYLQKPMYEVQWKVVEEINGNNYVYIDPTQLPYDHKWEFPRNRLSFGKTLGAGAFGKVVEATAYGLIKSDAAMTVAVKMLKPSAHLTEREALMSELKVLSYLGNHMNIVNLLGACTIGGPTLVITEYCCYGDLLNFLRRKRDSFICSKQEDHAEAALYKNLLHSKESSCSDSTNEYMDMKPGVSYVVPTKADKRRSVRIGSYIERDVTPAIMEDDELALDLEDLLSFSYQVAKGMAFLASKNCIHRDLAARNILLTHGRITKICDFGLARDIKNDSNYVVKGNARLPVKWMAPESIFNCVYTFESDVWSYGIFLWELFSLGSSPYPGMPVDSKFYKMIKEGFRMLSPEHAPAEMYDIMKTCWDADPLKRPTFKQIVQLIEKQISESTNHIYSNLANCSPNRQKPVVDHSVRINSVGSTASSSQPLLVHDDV
Chain of Protein-tyrosine kinase 6 (Q13882 whole entry): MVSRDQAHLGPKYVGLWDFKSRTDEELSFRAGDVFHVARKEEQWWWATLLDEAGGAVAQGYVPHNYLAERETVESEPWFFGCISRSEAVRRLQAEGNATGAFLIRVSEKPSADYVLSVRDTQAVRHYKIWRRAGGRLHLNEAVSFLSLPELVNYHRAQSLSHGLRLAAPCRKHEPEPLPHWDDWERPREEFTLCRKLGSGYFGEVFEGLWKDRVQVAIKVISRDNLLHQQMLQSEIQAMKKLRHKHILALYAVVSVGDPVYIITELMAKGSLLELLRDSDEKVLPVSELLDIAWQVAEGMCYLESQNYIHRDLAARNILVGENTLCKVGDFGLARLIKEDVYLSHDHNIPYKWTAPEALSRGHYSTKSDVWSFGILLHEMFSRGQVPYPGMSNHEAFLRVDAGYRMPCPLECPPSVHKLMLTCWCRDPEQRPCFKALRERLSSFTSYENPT
Chain of Hepatocyte growth factor receptor (P08581 whole entry): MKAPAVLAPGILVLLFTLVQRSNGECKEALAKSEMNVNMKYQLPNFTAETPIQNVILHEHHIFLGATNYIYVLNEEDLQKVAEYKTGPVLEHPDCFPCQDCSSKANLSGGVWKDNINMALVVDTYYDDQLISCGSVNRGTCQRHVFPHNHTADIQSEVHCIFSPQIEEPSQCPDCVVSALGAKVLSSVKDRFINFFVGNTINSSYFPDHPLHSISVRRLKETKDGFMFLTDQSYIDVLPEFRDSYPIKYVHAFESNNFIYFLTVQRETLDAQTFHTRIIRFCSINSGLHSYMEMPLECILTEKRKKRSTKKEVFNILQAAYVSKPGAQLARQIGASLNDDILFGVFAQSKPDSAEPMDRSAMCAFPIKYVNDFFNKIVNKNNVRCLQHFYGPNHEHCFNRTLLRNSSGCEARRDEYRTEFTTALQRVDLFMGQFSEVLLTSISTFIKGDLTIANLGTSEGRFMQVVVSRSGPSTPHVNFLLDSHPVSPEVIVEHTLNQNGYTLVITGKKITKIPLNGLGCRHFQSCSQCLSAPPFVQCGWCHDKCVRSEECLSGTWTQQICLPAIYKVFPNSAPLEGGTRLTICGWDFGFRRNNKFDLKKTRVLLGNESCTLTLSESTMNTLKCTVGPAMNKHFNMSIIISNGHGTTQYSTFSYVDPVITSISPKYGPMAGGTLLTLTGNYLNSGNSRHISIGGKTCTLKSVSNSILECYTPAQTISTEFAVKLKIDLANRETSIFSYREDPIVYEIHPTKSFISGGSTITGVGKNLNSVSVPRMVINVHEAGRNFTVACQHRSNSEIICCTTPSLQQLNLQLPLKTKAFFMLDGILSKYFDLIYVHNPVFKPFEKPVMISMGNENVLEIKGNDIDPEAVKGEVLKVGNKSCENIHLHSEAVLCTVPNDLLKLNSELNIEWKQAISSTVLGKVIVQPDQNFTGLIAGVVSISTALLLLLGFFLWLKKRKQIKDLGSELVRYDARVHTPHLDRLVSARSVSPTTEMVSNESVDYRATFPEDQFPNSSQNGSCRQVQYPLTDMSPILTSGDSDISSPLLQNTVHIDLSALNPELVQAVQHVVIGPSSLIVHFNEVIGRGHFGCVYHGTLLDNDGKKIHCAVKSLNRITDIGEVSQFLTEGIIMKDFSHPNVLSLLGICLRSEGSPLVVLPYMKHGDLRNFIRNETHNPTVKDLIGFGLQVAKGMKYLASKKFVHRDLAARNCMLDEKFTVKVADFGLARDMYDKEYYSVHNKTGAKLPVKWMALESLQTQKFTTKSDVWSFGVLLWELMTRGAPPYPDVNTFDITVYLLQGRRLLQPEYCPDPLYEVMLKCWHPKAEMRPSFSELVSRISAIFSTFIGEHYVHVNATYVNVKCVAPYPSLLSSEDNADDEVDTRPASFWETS

## CC(=O)C(C#N)C(=O)Nc1cc(Br)ccc1Br (stereo unspecified)
[1]
  IC50: 10 µM
[2]
  IC50: 61 µM
  Ki: 7.2 µM
[3]
  IC50: > 500 µM
[4]
  IC50: 281 µM
[5]
  IC50: 215 µM
[6]
  IC50: > 500 µM
[7]
  IC50: 240 µM
[8]
  IC50: > 500 µM
[9]
  IC50: 267 µM
[10]
  IC50: > 500 µM
